Results: patent US12486267B2, “Imidazo[1,2-A]pyridine and [1,2,4]triazolo[1,5-A]pyridine derivatives as TLR9 inhibitors for the treatment of fibrosis” (BRISTOL-MYERS SQUIBB COMPANY, priority 2020, dated 2025)

Assays:
Type in all cases: cell-based
human TLR9 = target: T1, human TLR9 (Homo sapiens, UniProt Q9NR96); test: TLR9 inhibition reporter assay (HEK-Blue cells, SEAP reporter); conditions: HEK-Blue cells overexpressing human TLR9; stimulated with ODN2006 5 nM; 22 hour incubation; SEAP readout
T1 sequence (Q9NR96 26-1032): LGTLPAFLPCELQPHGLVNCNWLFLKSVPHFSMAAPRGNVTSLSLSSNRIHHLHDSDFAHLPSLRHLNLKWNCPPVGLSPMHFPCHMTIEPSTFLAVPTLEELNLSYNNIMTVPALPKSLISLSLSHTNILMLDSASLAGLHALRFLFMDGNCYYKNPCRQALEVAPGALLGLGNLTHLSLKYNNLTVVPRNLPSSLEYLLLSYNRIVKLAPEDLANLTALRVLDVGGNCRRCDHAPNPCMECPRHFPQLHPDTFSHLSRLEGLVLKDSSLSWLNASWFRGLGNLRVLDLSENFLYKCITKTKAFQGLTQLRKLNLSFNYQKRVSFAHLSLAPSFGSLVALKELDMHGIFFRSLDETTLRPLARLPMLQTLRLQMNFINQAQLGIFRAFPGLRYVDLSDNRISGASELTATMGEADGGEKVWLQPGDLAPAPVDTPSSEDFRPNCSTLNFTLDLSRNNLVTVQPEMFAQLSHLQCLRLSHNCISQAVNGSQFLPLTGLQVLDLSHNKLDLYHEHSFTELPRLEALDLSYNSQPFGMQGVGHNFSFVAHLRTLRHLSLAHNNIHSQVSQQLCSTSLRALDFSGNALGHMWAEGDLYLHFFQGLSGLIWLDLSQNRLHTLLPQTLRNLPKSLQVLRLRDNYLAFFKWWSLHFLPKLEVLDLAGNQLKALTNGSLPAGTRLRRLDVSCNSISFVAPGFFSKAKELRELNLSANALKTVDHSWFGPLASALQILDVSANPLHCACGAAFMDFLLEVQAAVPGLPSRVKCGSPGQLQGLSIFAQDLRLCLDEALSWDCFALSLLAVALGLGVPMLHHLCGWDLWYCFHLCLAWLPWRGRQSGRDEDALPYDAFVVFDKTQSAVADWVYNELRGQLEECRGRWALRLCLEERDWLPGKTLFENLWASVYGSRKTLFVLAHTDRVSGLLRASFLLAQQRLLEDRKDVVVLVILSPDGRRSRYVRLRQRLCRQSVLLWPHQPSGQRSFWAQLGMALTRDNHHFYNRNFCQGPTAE
Procedure, shortened: (§1)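 HEK-Blue cells with an NF-κB/AP-1-driven SEAP reporter were pre-treated 30 min at room temperature with compound (0.05 nM–50 μM), then stimulated with gardiquimod 7.5 μM (TLR7), R848 15.9 μM (TLR8) or ODN2006 5 nM (TLR9). After 22 h at 37 °C, SEAP was read; % inhibition was referenced to agonist+DMSO and known-inhibitor wells.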

human TLR7 = target: T2, human TLR7 (Homo sapiens, UniProt Q9NYK1); test: TLR7 inhibition reporter assay (HEK-Blue cells, SEAP reporter); conditions: HEK-Blue cells overexpressing human TLR7; stimulated with gardiquimod 7.5 μM; 22 hour incubation; SEAP readout
T2 sequence (Q9NYK1 27-1049): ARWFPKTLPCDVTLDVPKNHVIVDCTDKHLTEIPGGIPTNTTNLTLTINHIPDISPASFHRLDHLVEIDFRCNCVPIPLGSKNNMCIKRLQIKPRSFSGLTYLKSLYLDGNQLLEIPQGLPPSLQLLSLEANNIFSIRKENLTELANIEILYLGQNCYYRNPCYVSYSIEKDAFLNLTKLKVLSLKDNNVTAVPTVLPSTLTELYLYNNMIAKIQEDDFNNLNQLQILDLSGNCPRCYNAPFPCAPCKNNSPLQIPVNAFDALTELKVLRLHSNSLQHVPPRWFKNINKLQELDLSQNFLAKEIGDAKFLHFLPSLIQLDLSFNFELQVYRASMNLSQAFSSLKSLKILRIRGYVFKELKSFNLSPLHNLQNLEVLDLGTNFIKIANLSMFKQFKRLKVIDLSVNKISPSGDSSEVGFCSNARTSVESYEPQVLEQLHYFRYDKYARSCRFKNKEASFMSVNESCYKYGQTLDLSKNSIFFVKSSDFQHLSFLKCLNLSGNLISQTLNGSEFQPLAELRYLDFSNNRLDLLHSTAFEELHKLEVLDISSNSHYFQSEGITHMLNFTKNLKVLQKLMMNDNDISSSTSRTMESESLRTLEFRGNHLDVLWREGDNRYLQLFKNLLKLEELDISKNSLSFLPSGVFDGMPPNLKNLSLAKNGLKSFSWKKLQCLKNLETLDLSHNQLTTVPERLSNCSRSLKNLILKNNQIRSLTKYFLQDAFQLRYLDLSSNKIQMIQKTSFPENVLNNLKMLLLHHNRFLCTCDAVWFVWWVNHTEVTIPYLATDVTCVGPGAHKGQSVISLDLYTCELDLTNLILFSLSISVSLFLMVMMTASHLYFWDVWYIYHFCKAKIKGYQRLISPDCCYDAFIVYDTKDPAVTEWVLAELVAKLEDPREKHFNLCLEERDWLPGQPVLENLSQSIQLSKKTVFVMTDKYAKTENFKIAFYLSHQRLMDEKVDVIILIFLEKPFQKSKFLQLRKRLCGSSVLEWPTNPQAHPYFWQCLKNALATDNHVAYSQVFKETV
Procedure, shortened: as §1

human TLR8 = target: T3, human TLR8 (Homo sapiens, UniProt Q9NR97); test: TLR8 inhibition reporter assay (HEK-Blue cells, SEAP reporter); conditions: HEK-Blue cells overexpressing human TLR8; stimulated with R848 15.9 μM; 22 hour incubation; SEAP readout
T3 sequence (Q9NR97 27-1041): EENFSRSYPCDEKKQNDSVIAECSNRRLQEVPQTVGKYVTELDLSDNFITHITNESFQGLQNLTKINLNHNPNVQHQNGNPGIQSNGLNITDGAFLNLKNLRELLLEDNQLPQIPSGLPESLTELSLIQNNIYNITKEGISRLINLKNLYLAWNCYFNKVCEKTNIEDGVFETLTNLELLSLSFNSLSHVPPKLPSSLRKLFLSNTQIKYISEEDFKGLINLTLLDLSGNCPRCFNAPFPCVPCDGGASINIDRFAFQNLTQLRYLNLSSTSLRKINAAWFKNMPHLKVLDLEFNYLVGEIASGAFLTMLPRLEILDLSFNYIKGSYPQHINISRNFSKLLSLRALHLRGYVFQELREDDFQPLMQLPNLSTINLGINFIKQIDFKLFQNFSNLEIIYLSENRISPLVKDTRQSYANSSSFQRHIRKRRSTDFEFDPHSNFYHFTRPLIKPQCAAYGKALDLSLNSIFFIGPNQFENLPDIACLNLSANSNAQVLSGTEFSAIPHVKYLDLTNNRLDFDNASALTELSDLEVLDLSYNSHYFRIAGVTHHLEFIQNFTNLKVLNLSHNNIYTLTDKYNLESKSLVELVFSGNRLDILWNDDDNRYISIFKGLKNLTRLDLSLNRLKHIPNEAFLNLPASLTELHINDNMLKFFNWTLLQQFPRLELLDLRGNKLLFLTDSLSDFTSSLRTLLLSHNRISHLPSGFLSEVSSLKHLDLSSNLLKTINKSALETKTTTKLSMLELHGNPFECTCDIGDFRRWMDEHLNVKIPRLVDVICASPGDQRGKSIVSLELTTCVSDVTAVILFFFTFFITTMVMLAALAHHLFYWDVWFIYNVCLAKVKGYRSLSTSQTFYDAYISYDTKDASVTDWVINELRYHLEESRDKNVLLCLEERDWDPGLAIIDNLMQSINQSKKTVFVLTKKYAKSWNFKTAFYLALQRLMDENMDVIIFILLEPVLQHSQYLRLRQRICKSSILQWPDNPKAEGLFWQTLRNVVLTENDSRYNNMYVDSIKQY
Procedure, shortened: as §1

| Compound | IC50 (human TLR9) | IC50 (human TLR7) | IC50 (human TLR8) |
| --- | --- | --- | --- |
| COc1ccc(-c2cn3cc(C4CCN(C5CC6CCC(C5)N6C(C)C)CC4)cc(C)c3n2)cc1OC (single isomer, unassigned) [Example 23, 2-(3,4-dimethoxyphenyl)-6-(1-(8-isopropyl-8-azabicyclo[3.2.1]octan-3-yl)piperidin-4-yl)-8-methylimidazo[1,2-a]pyridine] | 0.242 µM | 31 µM | > 50 µM |
| COc1ccc(-c2cn3c(n2)CCC(C2CCN(C4CCN(C5CC5)CC4)CC2)C3)cc1OC (single isomer, unassigned) [Example 37, 6-(1′-cyclopropyl-[1,4′-bipiperidin]-4-yl)-2-(3,4-dimethoxyphenyl)-5,6,7,8-tetrahydroimidazo[1,2-a]pyridine] | 0.062 µM | 4 µM | > 50 µM |
| COc1ccc(-c2cn3c(n2)CCC(C2CCN(C4CC5(C4)CN(C4CCC4)C5)CC2)C3)cc1OC (racemic) [Example 48, 6-(1-(2-cyclobutyl-2-azaspiro[3.3]heptan-6-yl)piperidin-4-yl)-2-(3,4-dimethoxyphenyl)-5,6,7,8-tetrahydroimidazo[1,2-a]pyridine] | 0.112 µM | 2 µM | > 50 µM |
| COc1ccc(-c2cn3cc(-c4ccc(N5CCN(CC6CC6)CC5)cc4)cc(C)c3n2)cc1OC [Example 95, 6-(4-(4-(cyclopropylmethyl)piperazin-1-yl)phenyl)-2-(3,4-dimethoxyphenyl)-8-methylimidazo[1,2-a]pyridine] | 0.531 µM | 1 µM | > 50 µM |
| COc1ccc(-c2cn3c(n2)CC[C@H](C2CCN(C4CC5CCC(C4)N5CC(C)C)CC2)C3)cc1OC (single isomer, unassigned) [Example 75] | 0.034 µM | 2.9 µM | > 25 µM |
| COc1ccc(-c2cn3cc(C4CCN(C5CCN(CC(C)C)CC5)CC4)cc(C)c3n2)cc1OC [Example 3, 2-(3,4-dimethoxyphenyl)-6-(1′-isobutyl-[1,4′-bipiperidin]-4-yl)-8-methylimidazo[1,2-a]pyridine] | 0.032 µM | 1.8 µM | > 50 µM |
| COc1ccc(-c2cn3cc(C4CC5CCC(C4)N5C4CCN(C5CC5)CC4)cc(C)c3n2)cc1OC (single isomer, unassigned) [Example 26, 6-(8-(1-cyclopropylpiperidin-4-yl)-8-azabicyclo[3.2.1]octan-3-yl)-2-(3,4-dimethoxyphenyl)-8-methylimidazo[1,2-a]pyridine] | 0.086 µM | 2 µM | > 50 µM |

Results, then the compound that gave them:

| IC50 (human TLR9) | IC50 (human TLR7) | IC50 (human TLR8) | Compound |
| --- | --- | --- | --- |
| 2.1 µM | > 50 µM | > 25 µM | COc1ccc(-c2cn3cc(-c4ccc(N5CCN(C6CCOCC6)CC5)cc4)cc(C)c3n2)cc1OC [Example 97, 2-(3,4-dimethoxyphenyl)-8-methyl-6-(4-(4-(tetrahydro-2H-pyran-4-yl)piperazin-1-yl)phenyl) imidazo[1,2-a]pyridine] |
| 0.67 µM | 4.8 µM | > 50 µM | Cc1cc(-c2ccc(N3CCN(C(C)C)CC3)cc2)cn2cc(-c3ccc(S(C)(=O)=O)cc3)nc12 [Example 65, 6-(4-(4-isopropylpiperazin-1-yl)phenyl)-8-methyl-2-(4-(methylsulfonyl)phenyl) imidazo[1,2-a]pyridine] |
| 0.068 µM | > 50 µM | > 50 µM | COc1ccc(-c2cn3c(n2)CCC(C2CCN(C4CC5(C4)CN(CC4CC4)C5)CC2)C3)cc1OC (racemic) [Example 51, 6-(1-(2-(cyclopropylmethyl)-2-azaspiro[3.3]heptan-6-yl)piperidin-4-yl)-2-(3,4-dimethoxyphenyl)-5,6,7,8-tetrahydroimidazo[1,2-a]pyridine] |
| 0.08 µM | 19 µM | > 50 µM | COc1ccc(-c2cn3c(n2)CCC(C2CCN(C4CCN(C(=O)C5CC5)CC4)CC2)C3)cc1OC (racemic) [Example 42, cyclopropyl(4-(2-(3,4-dimethoxyphenyl)-5,6,7,8-tetrahydroimidazo[1,2-a]pyridin-6-yl)-[1,4′-bipiperidin]-1′-yl)methanone] |
| 0.011 µM | 3.4 µM | > 50 µM | CS(=O)(=O)c1ccc(-c2cn3cc(C4CCN(C5CC6CCC(C5)N6C5CCOCC5)CC4)cc(F)c3n2)cc1 (single isomer, unassigned) [Example 121, 8-fluoro-2-(4-(methylsulfonyl)phenyl)-6-(1-(8-(tetrahydro-2H-pyran-4-yl)-8-azabicyclo[3.2.1]octan-3-yl)piperidin-4-yl) imidazo[1,2-a]pyridine] |
| 0.039 µM | 3 µM | > 50 µM | CC(C)N1CCCC(N2CCC(c3cc(F)c4nc(-c5ccc(S(C)(=O)=O)cc5)cn4c3)CC2)CC1 (single isomer, unassigned) [Example 71, 8-fluoro-6-(1-(1-isopropylazepan-4-yl)piperidin-4-yl)-2-(4-(methylsulfonyl)phenyl)imidazo[1,2-a]pyridine] |
